Experiments:
Assay in all cases: relative viability (nuclei count vs DMSO), 5 days (fraction); higher = more cells survive
NCI-H3122 = system: NCI-H3122
Outline: (§1)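 Cells from lung cancer lines were seeded into 1536-well plates and, one day later, dosed by pin tool. Treatments were either a single drug or a fixed dose of an anchor drug with five library-drug doses (not always all listed) in √10 steps. After 5 days, nuclei were stained in a one-step fixation (final 0.05% Triton X-100, 1% formaldehyde, 1 ug/ml Hoechst) and counted on 4× images, and relative viability is the treated-to-vehicle nuclei ratio, as the median of duplicate plates.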

EBC-1 = system: EBC-1
Outline: as §1

NCI-H1703 = system: NCI-H1703
Outline: as §1

HCC-44 = system: HCC-44
Outline: as §1

LOU-NH91 = system: LOU-NH91
Outline: as §1

IA-LM = system: IA-LM
Outline: as §1

LXF-289 = system: LXF-289
Outline: as §1

Calu-6 = system: Calu-6
Outline: as §1

NCI-H1299 = system: NCI-H1299
Outline: as §1

NCI-H1648 = system: NCI-H1648
Outline: as §1

HCC-366 = system: HCC-366
Outline: as §1

NCI-H1437 = system: NCI-H1437
Outline: as §1

A549 = system: A549
Outline: as §1

NCI-H2085 = system: NCI-H2085
Outline: as §1

Nc1ccn([C@@H]2O[C@H](CO)[C@@H](O)[C@@H]2O)c(=O)n1 [Cytarabine] + O=C(c1cc(Cc2n[nH]c(=O)c3ccccc23)ccc1F)N1CCN(C(=O)C2CC2)CC1 [Olaparib] (partner 8 µM)
relative viability (NCI-H3122; first compound 0.005 µM): 0.545
relative viability (NCI-H3122; first compound 0.01581 µM): 0.658
relative viability (NCI-H3122; first compound 0.05 µM): 0.585
relative viability (NCI-H3122; first compound 0.1581 µM): 0.389
relative viability (NCI-H3122; first compound 0.5 µM): 0.304
relative viability (EBC-1; first compound 0.005 µM): 0.725
relative viability (EBC-1; first compound 0.01581 µM): 0.569
relative viability (EBC-1; first compound 0.05 µM): 0.476
relative viability (EBC-1; first compound 0.1581 µM): 0.375
relative viability (EBC-1; first compound 0.5 µM): 0.241
relative viability (NCI-H1703; first compound 0.005 µM): 0.338
relative viability (NCI-H1703; first compound 0.01581 µM): 0.302
relative viability (NCI-H1703; first compound 0.05 µM): 0.196
relative viability (NCI-H1703; first compound 0.1581 µM): 0.0956
relative viability (NCI-H1703; first compound 0.5 µM): 0.0977
relative viability (HCC-44; first compound 0.005 µM): 1.03
relative viability (HCC-44; first compound 0.01581 µM): 1.05
relative viability (HCC-44; first compound 0.05 µM): 0.975
relative viability (HCC-44; first compound 0.1581 µM): 0.896
relative viability (HCC-44; first compound 0.5 µM): 0.848
relative viability (LOU-NH91; first compound 0.005 µM): 0.89
relative viability (LOU-NH91; first compound 0.01581 µM): 0.905
relative viability (LOU-NH91; first compound 0.05 µM): 0.833
relative viability (LOU-NH91; first compound 0.1581 µM): 0.676
relative viability (LOU-NH91; first compound 0.5 µM): 0.625
relative viability (IA-LM; first compound 0.005 µM): 0.626
relative viability (IA-LM; first compound 0.01581 µM): 0.714
relative viability (IA-LM; first compound 0.05 µM): 0.55
relative viability (IA-LM; first compound 0.1581 µM): 0.372
relative viability (IA-LM; first compound 0.5 µM): 0.268
relative viability (LXF-289; first compound 0.005 µM): 0.904
relative viability (LXF-289; first compound 0.01581 µM): 0.829
relative viability (LXF-289; first compound 0.05 µM): 0.709
relative viability (LXF-289; first compound 0.1581 µM): 0.285
relative viability (LXF-289; first compound 0.5 µM): 0.232
relative viability (Calu-6; first compound 0.005 µM): 0.597
relative viability (Calu-6; first compound 0.01581 µM): 0.488
relative viability (Calu-6; first compound 0.05 µM): 0.41
relative viability (Calu-6; first compound 0.1581 µM): 0.337
relative viability (Calu-6; first compound 0.5 µM): 0.225
relative viability (NCI-H1299; first compound 0.005 µM): 0.991
relative viability (NCI-H1299; first compound 0.01581 µM): 0.93
relative viability (NCI-H1299; first compound 0.05 µM): 0.987
relative viability (NCI-H1299; first compound 0.1581 µM): 0.985
relative viability (NCI-H1299; first compound 0.5 µM): 0.94
relative viability (NCI-H1648; first compound 0.005 µM): 0.904
relative viability (NCI-H1648; first compound 0.01581 µM): 0.793
relative viability (NCI-H1648; first compound 0.05 µM): 0.954
relative viability (NCI-H1648; first compound 0.1581 µM): 0.319
relative viability (NCI-H1648; first compound 0.5 µM): 0.377
relative viability (HCC-366; first compound 0.005 µM): 0.316
relative viability (HCC-366; first compound 0.01581 µM): 0.362
relative viability (HCC-366; first compound 0.05 µM): 0.32
relative viability (HCC-366; first compound 0.1581 µM): 0.136
relative viability (HCC-366; first compound 0.5 µM): 0.0939
relative viability (NCI-H1437; first compound 0.005 µM): 0.529
relative viability (NCI-H1437; first compound 0.01581 µM): 0.51
relative viability (NCI-H1437; first compound 0.05 µM): 0.469
relative viability (NCI-H1437; first compound 0.1581 µM): 0.283
relative viability (NCI-H1437; first compound 0.5 µM): 0.234
relative viability (A549; first compound 0.005 µM): 0.318
relative viability (A549; first compound 0.01581 µM): 0.242
relative viability (A549; first compound 0.05 µM): 0.0968
relative viability (A549; first compound 0.1581 µM): 0.0579
relative viability (A549; first compound 0.5 µM): 0.0331
relative viability (NCI-H2085; first compound 0.005 µM): 0.718
relative viability (NCI-H2085; first compound 0.01581 µM): 0.727
relative viability (NCI-H2085; first compound 0.05 µM): 0.802
relative viability (NCI-H2085; first compound 0.1581 µM): 0.655
relative viability (NCI-H2085; first compound 0.5 µM): 0.61

CC(=O)O[C@@]12CO[C@@H]1C[C@H](O)[C@@]1(C)C(=O)[C@H](O)C3=C(C)[C@@H](OC(=O)[C@H](O)[C@@H](NC(=O)OC(C)(C)C)c4ccccc4)C[C@@](O)([C@@H](OC(=O)c4ccccc4)[C@H]21)C3(C)C [Docetaxel] + NC(=O)Nc1cc(-c2cccc(F)c2)sc1C(=O)N[C@H]1CCCNC1 [AZD7762] (partner 0.2 µM)
relative viability (NCI-H3122; first compound 0.0002 µM): 0.939
relative viability (NCI-H3122; first compound 0.000632 µM): 0.818
relative viability (NCI-H3122; first compound 0.002 µM): 0.843
relative viability (NCI-H3122; first compound 0.006325 µM): 0.171
relative viability (NCI-H3122; first compound 0.02 µM): 0.121
relative viability (NCI-H1703; first compound 0.000632 µM): 0.121
relative viability (NCI-H1703; first compound 0.002 µM): 0.107
relative viability (NCI-H1703; first compound 0.006325 µM): 0.114
relative viability (NCI-H1703; first compound 0.02 µM): 0.0729
relative viability (HCC-44; first compound 0.0002 µM): 1.06
relative viability (HCC-44; first compound 0.000632 µM): 1.07
relative viability (HCC-44; first compound 0.002 µM): 1.07
relative viability (HCC-44; first compound 0.006325 µM): 0.525
relative viability (HCC-44; first compound 0.02 µM): 0.497
relative viability (LOU-NH91; first compound 0.0002 µM): 0.748
relative viability (LOU-NH91; first compound 0.000632 µM): 0.662
relative viability (LOU-NH91; first compound 0.002 µM): 0.509
relative viability (LOU-NH91; first compound 0.006325 µM): 0.385
relative viability (LOU-NH91; first compound 0.02 µM): 0.342
relative viability (LXF-289; first compound 0.0002 µM): 1.1
relative viability (LXF-289; first compound 0.000632 µM): 0.664
relative viability (LXF-289; first compound 0.002 µM): 0.346
relative viability (LXF-289; first compound 0.006325 µM): 0.129
relative viability (LXF-289; first compound 0.02 µM): 0.0873
relative viability (NCI-H1648; first compound 0.0002 µM): 0.589
relative viability (NCI-H1648; first compound 0.000632 µM): 0.701
relative viability (NCI-H1648; first compound 0.002 µM): 0.431
relative viability (NCI-H1648; first compound 0.006325 µM): 0.248
relative viability (NCI-H1648; first compound 0.02 µM): 0.217
relative viability (HCC-366; first compound 0.0002 µM): 0.206
relative viability (HCC-366; first compound 0.000632 µM): 0.0949
relative viability (HCC-366; first compound 0.002 µM): 0.145
relative viability (HCC-366; first compound 0.006325 µM): 0.0384
relative viability (HCC-366; first compound 0.02 µM): 0.0132
relative viability (NCI-H1437; first compound 0.0002 µM): 1.08
relative viability (NCI-H1437; first compound 0.000632 µM): 1.12
relative viability (NCI-H1437; first compound 0.002 µM): 0.616
relative viability (NCI-H1437; first compound 0.006325 µM): 0.281
relative viability (NCI-H1437; first compound 0.02 µM): 0.141
relative viability (NCI-H2085; first compound 0.0002 µM): 0.963
relative viability (NCI-H2085; first compound 0.000632 µM): 0.954
relative viability (NCI-H2085; first compound 0.002 µM): 0.849
relative viability (NCI-H2085; first compound 0.006325 µM): 0.338
relative viability (NCI-H2085; first compound 0.02 µM): 0.309

CC(=O)O[C@@]12CO[C@@H]1C[C@H](O)[C@@]1(C)C(=O)[C@H](O)C3=C(C)[C@@H](OC(=O)[C@H](O)[C@@H](NC(=O)OC(C)(C)C)c4ccccc4)C[C@@](O)([C@@H](OC(=O)c4ccccc4)[C@H]21)C3(C)C [Docetaxel] + O=C(CCCCCCC(=O)Nc1ccccc1)NO [Vorinostat] (partner 1 µM)
relative viability (NCI-H3122; first compound 0.0002 µM): 0.909
relative viability (NCI-H3122; first compound 0.000632 µM): 0.95
relative viability (NCI-H3122; first compound 0.002 µM): 0.487
relative viability (NCI-H3122; first compound 0.006325 µM): 0.22
relative viability (NCI-H3122; first compound 0.02 µM): 0.126
relative viability (HCC-44; first compound 0.0002 µM): 0.994
relative viability (HCC-44; first compound 0.000632 µM): 1.14
relative viability (HCC-44; first compound 0.002 µM): 0.861
relative viability (HCC-44; first compound 0.006325 µM): 0.515
relative viability (HCC-44; first compound 0.02 µM): 0.493
relative viability (LOU-NH91; first compound 0.0002 µM): 0.873
relative viability (LOU-NH91; first compound 0.000632 µM): 0.628
relative viability (LOU-NH91; first compound 0.002 µM): 0.436
relative viability (LOU-NH91; first compound 0.006325 µM): 0.397
relative viability (LOU-NH91; first compound 0.02 µM): 0.347
relative viability (IA-LM; first compound 0.0002 µM): 0.723
relative viability (IA-LM; first compound 0.000632 µM): 0.328
relative viability (IA-LM; first compound 0.002 µM): 0.145
relative viability (IA-LM; first compound 0.006325 µM): 0.0958
relative viability (IA-LM; first compound 0.02 µM): 0.0566
relative viability (LXF-289; first compound 0.0002 µM): 0.797
relative viability (LXF-289; first compound 0.000632 µM): 0.392
relative viability (LXF-289; first compound 0.002 µM): 0.168
relative viability (LXF-289; first compound 0.006325 µM): 0.19
relative viability (LXF-289; first compound 0.02 µM): 0.118
relative viability (NCI-H1648; first compound 0.0002 µM): 0.487
relative viability (NCI-H1648; first compound 0.000632 µM): 0.378
relative viability (NCI-H1648; first compound 0.002 µM): 0.255
relative viability (NCI-H1648; first compound 0.006325 µM): 0.301
relative viability (NCI-H1648; first compound 0.02 µM): 0.155
relative viability (HCC-366; first compound 0.0002 µM): 0.299
relative viability (HCC-366; first compound 0.000632 µM): 0.0824
relative viability (HCC-366; first compound 0.002 µM): 0.0503
relative viability (HCC-366; first compound 0.006325 µM): 0.0366
relative viability (HCC-366; first compound 0.02 µM): 0.0211
relative viability (NCI-H1437; first compound 0.0002 µM): 0.838
relative viability (NCI-H1437; first compound 0.000632 µM): 0.522
relative viability (NCI-H1437; first compound 0.002 µM): 0.553
relative viability (NCI-H1437; first compound 0.006325 µM): 0.275
relative viability (NCI-H1437; first compound 0.02 µM): 0.185
relative viability (NCI-H2085; first compound 0.0002 µM): 0.82
relative viability (NCI-H2085; first compound 0.000632 µM): 0.734
relative viability (NCI-H2085; first compound 0.002 µM): 0.736
relative viability (NCI-H2085; first compound 0.006325 µM): 0.355
relative viability (NCI-H2085; first compound 0.02 µM): 0.488

Reference: the supplement of paper PMC10307832
